Reference: US12527779B2, “Prostaglandin E2 (PGE2) EP4 receptor antagonists” (Domain Therapeutics, priority 2019, dated 2026)
“And” between values parts separate entries of the source, which are not always exact repeats. Equal entries are not always repeated.

Columns and labels:
Pan02 tumor cells = assay: In vivo anti-tumoral activity of Example 166 in a Pan02 tumor model; set-up: species or system C57BL/6 mice
Experimental: Pan02 tumor cells were maintained in vitro as a monolayer culture in RPM11640 medium supplemented with 10% fetal bovine serum at 37° C. in an atmosphere of 5% CO2 in air. The cells were routinely subcultured twice weekly by trypsin-EDTA treatment. The cells in an exponential growth phase were harvested and counted for tumor inoculation. Female C57BL/6 mice were inoculated subcutaneously in the right rear flank region with Pan02 tumor cells (3×10^6) in 0.1 ml of PBS for tumor development on day 0. Tumor volumes were measured thrice per week in two dimensions using a caliper, and the volume was expressed in mm^3 using the formula: “V=(L×W×W)/2”, where V is tumor volume, L is tumor length (the longest tumor dimension) and W is tumor width (the longest tumor dimension perpendicular to L). When the mean tumor size reached approximately 100 mm^3, mice were randomly allocated into groups (10 mice per group) and treated with or without the compound of Example 166 (3, 10, 30, 100 or 300 mg/kg, po, QD, 5% DMSO/95% (10% w/v solution of HP-β-CD in water) v/v) for at least 3 weeks). Animals were checked daily for morbidity and mortality. During routine monitoring, the animals were checked for any effects on tumor growth and treatments on behavior such as mobility, food and water consumption, body weight gain/loss (body weights were measured thrice per week), eye/hair matting and any other abnormalities. Dosing as well as tumor and body weight measurements were conducted in a Laminar Flow Cabinet. The body weights and tumor volumes were monitored by using StudyDirector™ software (version 3.1.399.19).

MCA205 tumor cells = assay: In vivo anti-tumoral activity of Example 166 in a MCA205 tumor model; set-up: species or system C57BL/6 mice
Experimental: Sarcoma MCA205 tumor cell line was cultured in vitro in DMEM supplemented with 10% FBS, 1% Penicillin-Streptomycin, 1 mM HEPES. Before inoculation in mice, cell viability was assessed by flow cytometry analysis and viable cell gating. A cell suspension was prepared according to the viable cell count.
Female C57BL/6 mice were inoculated subcutaneously in the right flank region with MCA205 tumor cells (0.5×10^6) in 0.1 ml of PBS for tumor development on day 1. Tumor volumes were measured thrice per week in two dimensions using a caliper, and the volume was expressed in mm^3 using the formula: “V=(L×W×W)/2”, where V is tumor volume, L is tumor length (the longest tumor dimension) and W is tumor width (the longest tumor dimension perpendicular to L). When the mean tumor size reached approximately 80 mm^3, mice were randomly allocated into groups (10 mice per group) and treated with or without an anti-PD-1 antibody (RPM1-14, 5 mg/kg, ip, on days 1, 4, 7, 10), with or without the compound of Example 166 (30 or 100 mg/kg, po, QD, 5% DMSO/95% (10% w/v solution of HP-3-CD in water) v/v) for 23 days).
Animals were checked daily for morbidity and mortality. During routine monitoring, the animals were checked for any effects on tumor growth and treatments on behavior such as mobility, food and water consumption, body weight gain/loss (body weights were measured thrice per week), eye/hair matting and any other abnormalities.

C[C@H](NC(=O)C1(N2CC[C@@H](Oc3cccc(C(F)(F)F)c3)C2)CC1)c1ccc(C(=O)O)cc1.Cl [Example 166, 4-[(1S)-1-[[1-[(3R)-3-[3-(Trifluoromethyl)phenoxy]pyrrolidin-1-yl]cyclopropane-1-carbonyl]amino]ethyl]benzoic acid, hydrochloride] was tested, and the “Tumor Growth Inhibition TGI (%)” value (Pan02 tumor cells; 3 mg/kg po QD, day 0) was 0.0%, the “Tumor Growth Inhibition TGI (%)” value (Pan02 tumor cells; 3 mg/kg po QD, day 4) was 8.2% and the “Tumor Growth Inhibition TGI (%)” value (Pan02 tumor cells; 3 mg/kg po QD, day 7) was 2.9%. For the same compound, the “Tumor Growth Inhibition TGI (%)” value (Pan02 tumor cells; 3 mg/kg po QD, day 9) was 2.3%, the “Tumor Growth Inhibition TGI (%)” value (Pan02 tumor cells; 3 mg/kg po QD, day 11) was −8.0% and the “Tumor Growth Inhibition TGI (%)” value (Pan02 tumor cells; 3 mg/kg po QD, day 14) was −5.6%. The “Tumor Growth Inhibition TGI (%)” value (Pan02 tumor cells; 3 mg/kg po QD, day 16) was 10.7%, the “Tumor Growth Inhibition TGI (%)” value (Pan02 tumor cells; 3 mg/kg po QD, day 18) was 9.1% and the “Tumor Growth Inhibition TGI (%)” value (Pan02 tumor cells; 3 mg/kg po QD, day 21) was −1.4%. For the same compound, the “Tumor Growth Inhibition TGI (%)” value (Pan02 tumor cells; 10 mg/kg po QD, day 0) was 0.0%, the “Tumor Growth Inhibition TGI (%)” value (Pan02 tumor cells; 10 mg/kg po QD, day 4) was 14.3% and the “Tumor Growth Inhibition TGI (%)” value (Pan02 tumor cells; 10 mg/kg po QD, day 7) was −2.3%. The “Tumor Growth Inhibition TGI (%)” value (Pan02 tumor cells; 10 mg/kg po QD, day 9) was 0.8%, the “Tumor Growth Inhibition TGI (%)” value (Pan02 tumor cells; 10 mg/kg po QD, day 11) was 2.4% and the “Tumor Growth Inhibition TGI (%)” value (Pan02 tumor cells; 10 mg/kg po QD, day 14) was 11.1%. For the same compound, the “Tumor Growth Inhibition TGI (%)” value (Pan02 tumor cells; 10 mg/kg po QD, day 16) was 21.1%, the “Tumor Growth Inhibition TGI (%)” value (Pan02 tumor cells; 10 mg/kg po QD, day 18) was 22.4% and the “Tumor Growth Inhibition TGI (%)” value (Pan02 tumor cells; 10 mg/kg po QD, day 21) was 16.2%. The “Tumor Growth Inhibition TGI (%)” value (Pan02 tumor cells; 30 mg/kg po QD, day 0) was 0.0%, the “Tumor Growth Inhibition TGI (%)” value (Pan02 tumor cells; 30 mg/kg po QD, day 4) was 17.5% and the “Tumor Growth Inhibition TGI (%)” value (Pan02 tumor cells; 30 mg/kg po QD, day 7) was 19.0%. For the same compound, the “Tumor Growth Inhibition TGI (%)” value (Pan02 tumor cells; 30 mg/kg po QD, day 9) was 16.3%, the “Tumor Growth Inhibition TGI (%)” value (Pan02 tumor cells; 30 mg/kg po QD, day 11) was −8.2% and the “Tumor Growth Inhibition TGI (%)” value (Pan02 tumor cells; 30 mg/kg po QD, day 14) was 5.7%. The “Tumor Growth Inhibition TGI (%)” value (Pan02 tumor cells; 30 mg/kg po QD, day 16) was 9.7%, the “Tumor Growth Inhibition TGI (%)” value (Pan02 tumor cells; 30 mg/kg po QD, day 18) was 13.9% and the “Tumor Growth Inhibition TGI (%)” value (Pan02 tumor cells; 30 mg/kg po QD, day 21) was 7.4%. The “Tumor Growth Inhibition TGI (%)” value (Pan02 tumor cells; 100 mg/kg po QD, day 0) was 0.0%, the “Tumor Growth Inhibition TGI (%)” value (Pan02 tumor cells; 100 mg/kg po QD, day 4) was 17.1% and the “Tumor Growth Inhibition TGI (%)” value (Pan02 tumor cells; 100 mg/kg po QD, day 7) was 21.4%. For the same compound, the “Tumor Growth Inhibition TGI (%)” value (Pan02 tumor cells; 100 mg/kg po QD, day 9) was 20.8%, the “Tumor Growth Inhibition TGI (%)” value (Pan02 tumor cells; 100 mg/kg po QD, day 11) was 23.7% and the “Tumor Growth Inhibition TGI (%)” value (Pan02 tumor cells; 100 mg/kg po QD, day 14) was 44.3%. The “Tumor Growth Inhibition TGI (%)” value (Pan02 tumor cells; 100 mg/kg po QD, day 16) was 42.2%, the “Tumor Growth Inhibition TGI (%)” value (Pan02 tumor cells; 100 mg/kg po QD, day 18, hydrochloride) was 48.2% and the “Tumor Growth Inhibition TGI (%)” value (Pan02 tumor cells; 100 mg/kg po QD, day 21) was 42.6%. For the same compound, the “Tumor Growth Inhibition TGI (%)” value (Pan02 tumor cells; 300 mg/kg po QD, day 0) was 0.0%, the “Tumor Growth Inhibition TGI (%)” value (Pan02 tumor cells; 300 mg/kg po QD, day 4) was 14.3% and the “Tumor Growth Inhibition TGI (%)” value (Pan02 tumor cells; 300 mg/kg po QD, day 7) was −2.5%. For the same compound, the “Tumor Growth Inhibition TGI (%)” value (Pan02 tumor cells; 300 mg/kg po QD, day 9) was −0.7%, the “Tumor Growth Inhibition TGI (%)” value (Pan02 tumor cells; 300 mg/kg po QD, day 11) was −5.6% and the “Tumor Growth Inhibition TGI (%)” value (Pan02 tumor cells; 300 mg/kg po QD, day 14) was 11.8%. The “Tumor Growth Inhibition TGI (%)” value (Pan02 tumor cells; 300 mg/kg po QD, day 16) was 24.7%, the “Tumor Growth Inhibition TGI (%)” value (Pan02 tumor cells; 300 mg/kg po QD, day 18, hydrochloride) was 32.9% and the “Tumor Growth Inhibition TGI (%)” value (Pan02 tumor cells; 300 mg/kg po QD, day 21) was 32.8%. For the same compound, the “Tumor Growth Inhibition TGI (%)” value (MCA205 tumor cells; Example 166 30 mg/kg po QD + anti-PD1 antibody 5 mg/kg ip, day 1) was 0.1%, the “Tumor Growth Inhibition TGI (%)” value (MCA205 tumor cells; Example 166 30 mg/kg po QD + anti-PD1 antibody 5 mg/kg ip, day 3) was 8.3% and the “Tumor Growth Inhibition TGI (%)” value (MCA205 tumor cells; Example 166 30 mg/kg po QD + anti-PD1 antibody 5 mg/kg ip, day 6) was 30.6%. For the same compound, the “Tumor Growth Inhibition TGI (%)” value (MCA205 tumor cells; Example 166 30 mg/kg po QD + anti-PD1 antibody 5 mg/kg ip, day 8) was 47.4%, the “Tumor Growth Inhibition TGI (%)” value (MCA205 tumor cells; Example 166 30 mg/kg po QD + anti-PD1 antibody 5 mg/kg ip, day 10) was 58.6% and the “Tumor Growth Inhibition TGI (%)” value (MCA205 tumor cells; Example 166 30 mg/kg po QD + anti-PD1 antibody 5 mg/kg ip, day 13) was 55.7%. For the same compound, the “Tumor Growth Inhibition TGI (%)” value (MCA205 tumor cells; Example 166 30 mg/kg po QD + anti-PD1 antibody 5 mg/kg ip, day 15) was 49.3%, the “Tumor Growth Inhibition TGI (%)” value (MCA205 tumor cells; Example 166 30 mg/kg po QD + anti-PD1 antibody 5 mg/kg ip, day 17) was 52.2% and the “Tumor Growth Inhibition TGI (%)” value (MCA205 tumor cells; Example 166 30 mg/kg po QD, day 1) was −6.1%. The “Tumor Growth Inhibition TGI (%)” value (MCA205 tumor cells; Example 166 30 mg/kg po QD, day 3) was −6.3%, the “Tumor Growth Inhibition TGI (%)” value (MCA205 tumor cells; Example 166 30 mg/kg po QD, day 6) was −22.4% and the “Tumor Growth Inhibition TGI (%)” value (MCA205 tumor cells; Example 166 30 mg/kg po QD, day 8) was 9.8%. For the same compound, the “Tumor Growth Inhibition TGI (%)” value (MCA205 tumor cells; Example 166 30 mg/kg po QD, day 10) was 10.2%, the “Tumor Growth Inhibition TGI (%)” value (MCA205 tumor cells; Example 166 30 mg/kg po QD, day 13) was 6.4% and the “Tumor Growth Inhibition TGI (%)” value (MCA205 tumor cells; Example 166 30 mg/kg po QD, day 15) was 4.3%. For the same compound, the “Tumor Growth Inhibition TGI (%)” value (MCA205 tumor cells; Example 166 30 mg/kg po QD, day 17) was 10.8%, the “Tumor Growth Inhibition TGI (%)” value (MCA205 tumor cells; Example 166 100 mg/kg po QD + anti-PD1 antibody 5 mg/kg ip, day 1) was 1.4% and the “Tumor Growth Inhibition TGI (%)” value (MCA205 tumor cells; Example 166 100 mg/kg po QD + anti-PD1 antibody 5 mg/kg ip, day 3) was 12.2%. For the same compound, the “Tumor Growth Inhibition TGI (%)” value (MCA205 tumor cells; Example 166 100 mg/kg po QD + anti-PD1 antibody 5 mg/kg ip, day 6) was 34.3%, the “Tumor Growth Inhibition TGI (%)” value (MCA205 tumor cells; Example 166 100 mg/kg po QD + anti-PD1 antibody 5 mg/kg ip, day 8) was 50.2% and the “Tumor Growth Inhibition TGI (%)” value (MCA205 tumor cells; Example 166 100 mg/kg po QD + anti-PD1 antibody 5 mg/kg ip, day 10) was 66.6%. For the same compound, the “Tumor Growth Inhibition TGI (%)” value (MCA205 tumor cells; Example 166 100 mg/kg po QD + anti-PD1 antibody 5 mg/kg ip, day 13) was 70.4%, the “Tumor Growth Inhibition TGI (%)” value (MCA205 tumor cells; Example 166 100 mg/kg po QD + anti-PD1 antibody 5 mg/kg ip, day 15) was 67.3% and the “Tumor Growth Inhibition TGI (%)” value (MCA205 tumor cells; Example 166 100 mg/kg po QD + anti-PD1 antibody 5 mg/kg ip, day 17, hydrochloride) was 68.0% and 68.1%. The “Tumor Growth Inhibition TGI (%)” value (MCA205 tumor cells; Example 166 100 mg/kg po QD, day 1) was −0.7%, the “Tumor Growth Inhibition TGI (%)” value (MCA205 tumor cells; Example 166 100 mg/kg po QD, day 3) was 13.2% and the “Tumor Growth Inhibition TGI (%)” value (MCA205 tumor cells; Example 166 100 mg/kg po QD, day 6) was 12.1%. For the same compound, the “Tumor Growth Inhibition TGI (%)” value (MCA205 tumor cells; Example 166 100 mg/kg po QD, day 8) was 16.7%, the “Tumor Growth Inhibition TGI (%)” value (MCA205 tumor cells; Example 166 100 mg/kg po QD, day 10) was 25.7% and the “Tumor Growth Inhibition TGI (%)” value (MCA205 tumor cells; Example 166 100 mg/kg po QD, day 13) was 32.6%. For the same compound, the “Tumor Growth Inhibition TGI (%)” value (MCA205 tumor cells; Example 166 100 mg/kg po QD, day 15) was 23.6% and the “Tumor Growth Inhibition TGI (%)” value (MCA205 tumor cells; Example 166 100 mg/kg po QD, day 17, hydrochloride, 100 mg/kg) was 31.0%.
